Measured values as given in PubChem BioAssay AID330 (DTP/NCI, 2004).
Where “and” joins values, the source holds several entries; their conditions need not be identical. Equal entries are not always repeated. Inconclusive results and toxic doses are left out.

Tested on: P388 leukemia ip, CD2F1 mice, survival T/C
Assay: NCI In Vivo Anticancer Drug Screen. Data for tumor model P388 Leukemia (intraperitoneal) in CD2F1 (CDF1) mice
Conditions: endpoint: median survival time, higher = longer survival
Procedure: The antitumor activity of compounds was measured in mice bearing transplantable tumors. Survival or tumor size were measured and the results are expressed as the measurement made in the treated group (T) divided by the measurement made in the vehicle treated control group (C). The tumor model used in this assay is P388 Leukemia (intraperitoneal) in CD2F1 (CDF1) mice

[1] = dose: 50.0 mg/kg/injection, schedule: Q01DX001 (ip), vehicle: Klucel (hydroxypropylcellulose) (HPC)
[2] = dose: 100.0 mg/kg/injection, schedule: Q01DX001 (ip), vehicle: Klucel (hydroxypropylcellulose) (HPC)
[3] = dose: 50.0 mg/kg/injection, schedule: Q01DX005 (ip), vehicle: Klucel (hydroxypropylcellulose) (HPC)
[4] = dose: 6.25 mg/kg/injection, schedule: Q01DX009 (ip), vehicle: saline
[5] = dose: 12.5 mg/kg/injection, schedule: Q01DX009 (ip), vehicle: saline
[6] = dose: 50.0 mg/kg/injection, schedule: Q01DX009 (ip), vehicle: Klucel (hydroxypropylcellulose) (HPC)
[7] = dose: 100.0 mg/kg/injection, schedule: Q01DX009 (ip), vehicle: Klucel (hydroxypropylcellulose) (HPC)
[8] = dose: 60.0 mg/kg/injection, schedule: Q01DX005 (ip), vehicle: saline with Tween-80
[9] = dose: 120.0 mg/kg/injection, schedule: Q01DX005 (ip), vehicle: saline with Tween-80
[10] = dose: 240.0 mg/kg/injection, schedule: Q01DX005 (ip), vehicle: saline with Tween-80
[11] = dose: 50.0 mg/kg/injection, schedule: Q01DX009 (ip), vehicle: saline
[12] = dose: 100.0 mg/kg/injection, schedule: Q01DX009 (ip), vehicle: saline
[13] = dose: 200.0 mg/kg/injection, schedule: Q01DX009 (ip), vehicle: saline

With CC1C2(c3ccccc3)C(C(=O)c3ccccc3)NC(c3ccccc3)C12c1ccccc1 (stereo not given) the T/C (dose: 50.0 mg/kg/injection, schedule: Q01DX005 (ip), vehicle: saline with Tween-80) was 87 % of control and the T/C (dose: 100.0 mg/kg/injection, schedule: Q01DX005 (ip), vehicle: saline with Tween-80) was 87 % of control.
For Oc1cc2c(cc1C1COc3cc(OCc4ccccc4)ccc3C1)OCO2 (stereo not given), the T/C [1] was 95 % of control, the T/C [2] was 90 % of control and the T/C (dose: 200.0 mg/kg/injection, schedule: Q01DX001 (ip), vehicle: Klucel (hydroxypropylcellulose) (HPC)) was 93 % of control.
In the case of CCOC1=C(C#N)C(SC)=CS(C)(=O)=C1 (stereo not given), the T/C (dose: 50.0 mg/kg/injection, schedule: Q04DX003 (ip), vehicle: Klucel (hydroxypropylcellulose) (HPC)) is reported as 98 % of control, the T/C (dose: 100.0 mg/kg/injection, schedule: Q04DX003 (ip), vehicle: Klucel (hydroxypropylcellulose) (HPC)) is reported as 97 % of control and the T/C (dose: 200.0 mg/kg/injection, schedule: Q04DX003 (ip), vehicle: Klucel (hydroxypropylcellulose) (HPC)) is reported as 101 % of control.
With CC(=O)OCC12C(=O)CC(C)C3(CC(c4ccoc4)OC3=O)C1(C)CCCC21CO1 (stereo not given) the T/C (dose: 3.12 mg/kg/injection, schedule: Q01DX005 (ip), vehicle: Klucel (hydroxypropylcellulose) (HPC)) was 97 % of control, the T/C (dose: 6.25 mg/kg/injection, schedule: Q01DX005 (ip), vehicle: Klucel (hydroxypropylcellulose) (HPC)) was 97 % of control and the T/C (dose: 12.5 mg/kg/injection, schedule: Q01DX005 (ip), vehicle: Klucel (hydroxypropylcellulose) (HPC)) was 99 % of control. For the same compound, the T/C (dose: 25.0 mg/kg/injection, schedule: Q01DX005 (ip), vehicle: Klucel (hydroxypropylcellulose) (HPC)) was 92 % of control and the T/C [3] was 94 % of control.
With CC(=O)SC1C(=O)N(C)C(SC(C)=O)C(=O)N1C (stereo not given) the T/C [4] was 107 % of control and the T/C [5] was 110 % of control.
With COc1cc(/C=N/NS(=O)(=O)c2ccc(C)cc2)cc([N+](=O)[O-])c1O the T/C (dose: 3.12 mg/kg/injection, schedule: Q01DX009 (ip), vehicle: distilled water + Tween-80) was 87 % of control, the T/C (dose: 6.25 mg/kg/injection, schedule: Q01DX009 (ip), vehicle: distilled water + Tween-80) was 103 % of control and the T/C (dose: 12.5 mg/kg/injection, schedule: Q01DX009 (ip), vehicle: distilled water + Tween-80) was 104 % of control. The T/C (dose: 25.0 mg/kg/injection, schedule: Q01DX009 (ip), vehicle: distilled water + Tween-80) was 104 % of control, the T/C (dose: 25.0 mg/kg/injection, schedule: Q01DX009 (ip), vehicle: other) was 106 % of control and the T/C (dose: 50.0 mg/kg/injection, schedule: Q01DX009 (ip), vehicle: other) was 99 % of control. For the same compound, the T/C (dose: 100.0 mg/kg/injection, schedule: Q01DX009 (ip), vehicle: other) was 106 % of control, the T/C (dose: 200.0 mg/kg/injection, schedule: Q01DX009 (ip), vehicle: other) was 98 % of control and the T/C (dose: 400.0 mg/kg/injection, schedule: Q01DX009 (ip), vehicle: other) was 113 % of control.
In the case of COC(=O)Nc1nc2ccc(SC)cc2c(=O)[nH]1, the T/C [6] is reported as 103 % of control and 105 % of control and the T/C [7] is reported as 113 % of control.
CN(C)c1ccc(-c2nnc3c(c(=O)n(C)c(=O)n3C)[n+]2[O-])cc1 was tested, and the T/C (dose: 25.0 mg/kg/injection, schedule: Q01DX001 (ip), vehicle: Klucel (hydroxypropylcellulose) (HPC)) was 102 % of control, the T/C [1] was 93 % of control and the T/C [2] was 100 % of control and 94 % of control.
In the case of CC(=O)Nc1ccccc1C(=O)C(=O)Nc1ccccc1C(=O)NN, the T/C [8] is reported as 106 % of control, the T/C [9] is reported as 89 % of control and the T/C [10] is reported as 87 % of control.
For CCOc1ccc(C(C)c2cc3c(cc2O)OCO3)cc1 (stereo not given), the T/C [8] was 105 % of control, the T/C [9] was 104 % of control and the T/C [10] was 109 % of control.
COCOc1c(OC)c(C2(O)C(=O)N(C)c3ccccc32)c(OCOC)c(OC)c1C1(O)C(=O)N(C)c2ccccc21 (stereo not given) was tested, and the T/C [8] was 100 % of control, the T/C [9] was 89 % of control and the T/C [10] was 88 % of control.
CNC(=O)O/N=C(\SC)C(=O)N(C)C was tested, and the T/C (dose: 0.87 mg/kg/injection, schedule: Q01DX005 (ip), vehicle: saline) was 102 % of control and the T/C (dose: 1.75 mg/kg/injection, schedule: Q01DX005 (ip), vehicle: saline) was 100 % of control.
For CC(=O)/C=C/C=C/c1ccc2c(c1)OC(CO)C(c1ccc(O)c(O)c1)O2 (stereo not given), the T/C [3] was 95 % of control, the T/C (dose: 100.0 mg/kg/injection, schedule: Q01DX005 (ip), vehicle: Klucel (hydroxypropylcellulose) (HPC)) was 90 % of control and 95 % of control and the T/C (dose: 200.0 mg/kg/injection, schedule: Q01DX005 (ip), vehicle: Klucel (hydroxypropylcellulose) (HPC)) was 87 % of control. The T/C (dose: 400.0 mg/kg/injection, schedule: Q01DX005 (ip), vehicle: Klucel (hydroxypropylcellulose) (HPC)) was 87 % of control.
With C/C(N)=C\C(=S)Nc1ccccc1 the T/C (dose: 12.5 mg/kg/injection, schedule: Q01DX009 (ip), vehicle: Klucel (hydroxypropylcellulose) (HPC)) was 100 % of control, the T/C (dose: 25.0 mg/kg/injection, schedule: Q01DX009 (ip), vehicle: Klucel (hydroxypropylcellulose) (HPC)) was 106 % of control and the T/C [6] was 104 % of control.
In the case of CCn1c2ccccc2c2c3c(NCCCN(C)C)cc(C)nc3ccc21, the T/C (dose: 5.5 mg/kg/injection, schedule: Q01DX009 (ip), vehicle: suspension in saline) is reported as 93 % of control, the T/C (dose: 11.0 mg/kg/injection, schedule: Q01DX009 (ip), vehicle: suspension in saline) is reported as 97 % of control and the T/C (dose: 22.0 mg/kg/injection, schedule: Q01DX009 (ip), vehicle: suspension in saline) is reported as 97 % of control.
For COc1ccc2c(c1)CCn1c(C)c(COC(=O)NC3CCCCC3)c(COC(=O)NC3CCCCC3)c1-2, the T/C (dose: 50.0 mg/kg/injection, schedule: Q01DX009 (ip), vehicle: distilled water + Tween-80) was 151 % of control and 164 % of control and the T/C (dose: 100.0 mg/kg/injection, schedule: Q01DX009 (ip), vehicle: distilled water + Tween-80) was 92 % of control.
In the case of Cc1c(N)nc(C(CC(N)=O)NCC(N)C(N)=O)nc1C(=O)NC(C(=O)NC(C)C(O)C(C)C(=O)NC(C(=O)NCCc1nc(-c2nc(C(=O)NCCCNCCCc3ccccn3)cs2)cs1)C(C)O)C(OC1OC(CO)C(O)C(O)C1OC1OC(CO)C(O)C(OC(N)=O)C1O)c1cnc[nH]1 (stereo not given), the T/C (dose: 0.25 mg/kg/injection, schedule: Q01DX009 (ip), vehicle: water) is reported as 110 % of control, the T/C (dose: 0.5 mg/kg/injection, schedule: Q01DX009 (ip), vehicle: water) is reported as 104 % of control and the T/C (dose: 1.0 mg/kg/injection, schedule: Q01DX009 (ip), vehicle: water) is reported as 111 % of control. For the same compound, the T/C (dose: 2.0 mg/kg/injection, schedule: Q01DX009 (ip), vehicle: water) was 101 % of control, the T/C (dose: 4.0 mg/kg/injection, schedule: Q01DX009 (ip), vehicle: saline) was 104 % of control and the T/C (dose: 8.0 mg/kg/injection, schedule: Q01DX009 (ip), vehicle: saline) was 104 % of control. For the same compound, the T/C (dose: 16.0 mg/kg/injection, schedule: Q01DX009 (ip), vehicle: saline) was 112 % of control and the T/C (dose: 32.0 mg/kg/injection, schedule: Q01DX009 (ip), vehicle: saline) was 105 % of control.
In the case of Oc1cc2c(cc1O)[C@H]1c3ccc(O)c(O)c3OC[C@@]1(O)C2, the T/C [4] is reported as 100 % of control, the T/C [5] is reported as 101 % of control and the T/C (dose: 25.0 mg/kg/injection, schedule: Q01DX009 (ip), vehicle: saline) is reported as 112 % of control. The T/C [11] was 122 % of control, the T/C [12] was 113 % of control and the T/C [13] was 115 % of control.
For CCOC1OCN(c2ccc(Cl)cc2)CC1(C)C (stereo not given), the T/C (dose: 25.0 mg/kg/injection, schedule: Q01DX009 (ip), vehicle: saline with Tween-80) was 111 % of control, the T/C (dose: 50.0 mg/kg/injection, schedule: Q01DX009 (ip), vehicle: saline with Tween-80) was 106 % of control and 107 % of control and 93 % of control and the T/C (dose: 100.0 mg/kg/injection, schedule: Q01DX009 (ip), vehicle: saline with Tween-80) was 100 % of control and 119 % of control. For the same compound, the T/C (dose: 200.0 mg/kg/injection, schedule: Q01DX009 (ip), vehicle: saline with Tween-80) was 101 % of control and 116 % of control and the T/C (dose: 400.0 mg/kg/injection, schedule: Q01DX009 (ip), vehicle: saline with Tween-80) was 100 % of control and 110 % of control.
O=C1CCc2nc(-c3ccccc3)ncc21 was tested, and the T/C (dose: 100.0 mg/kg/injection, schedule: Q04DX003 (ip), vehicle: saline with Tween-80) was 99 % of control, the T/C (dose: 200.0 mg/kg/injection, schedule: Q04DX003 (ip), vehicle: saline with Tween-80) was 89 % of control and the T/C (dose: 400.0 mg/kg/injection, schedule: Q04DX003 (ip), vehicle: saline with Tween-80) was 88 % of control.
Cc1cc(=O)n(-c2ccccc2)c(=O)[nH]1 was tested, and the T/C [11] was 104 % of control, the T/C [12] was 111 % of control and the T/C [13] was 111 % of control.
Cc1c(NC(=S)Nc2ccc(Cl)c(Cl)c2)c(=O)n(-c2ccccc2)n1C was tested, and the T/C [6] was 106 % of control, the T/C [7] was 93 % of control and the T/C (dose: 200.0 mg/kg/injection, schedule: Q01DX009 (ip), vehicle: Klucel (hydroxypropylcellulose) (HPC)) was 88 % of control.
